The values that follow are results of earlier work, collected in patent publication US20150374878A1, “[…] FOR WOUND CARE” (AKESO BIOMEDICAL, INC., priority 2014, published 2015).

For the data set the following is noted: see U.S. Pat. No. 5,858,365 to Faller.

Take `CCCC(=O)O` [butyric acid]: the half-life in serum result is listed as “about 2 minutes”.
